Point of comparison: `Nc1cccc(-c2c(Cl)cccc2Cl)c1` [1-268, 3-(2′,6′-dichlorophenyl)aniline], melting point 102 °C. Against it:
- CNC(=O)c1cccc(-c2c(C)cc(OC)cc2C)c1 [1-65, N-methyl-3-(2′,6′-dimethyl-4′-methoxyphenyl)benzamide] — higher, 139.6 °C
- CNC(=O)c1cc(-c2c(C)cc(C)cc2C)ccc1Cl [Compound No. 2-12, N-methyl-6-chloro-3-(2′,4′,6′-trimethylphenyl)benzamide] — higher, 130 °C
- CNC(=O)c1cccc(-c2c(Cl)ccc(C(F)(F)F)c2Cl)c1 [1-120, N-methyl-3-(2′,6′-dichloro-3′-trifluoromethylphenyl)benzamide] — higher, 126.1 °C
- CNC(=O)c1cccc(-c2c(Cl)ccc(Cl)c2Cl)c1 [1-72, N-methyl-3-(2′,3′,6′-trichlorophenyl)benzamide] — higher, 135.3 °C
- CNC(=O)c1cccc(-c2c(Cl)cccc2Cl)c1 [1-30, N-methyl-3-(2′,6′-dichlorophenyl)benzamide] — higher, 174.8 °C
- CNC(=O)c1cccc(-c2c(C)cc(C)cc2C)c1 [1-22, N-methyl-3-(2′,4′,6′-trimethylphenyl)benzamide] — higher, 142.9 °C
- CNC(=O)c1cccc(-c2c(Cl)ccc(Br)c2Cl)c1 [1-82, N-methyl-3-(2′,6′-dichloro-3′-bromophenyl)benzamide] — higher, 158 °C
- CNC(=O)c1cc(-c2c(Cl)cccc2Cl)ccc1F [2-22, N-methyl-3-(2′,6′-dichlorophenyl)-6-fluorobenzamide] — higher, 142.5 °C
- CNC(=O)c1cccc(-c2c(Cl)ccc(N)c2Cl)c1 [1-108, N-methyl-3-(2′,6′-dichloro-3′-aminophenyl)benzamide] — lower, 64.1 °C
- CNC(=O)c1cccc(-c2c(C)cc(Cl)cc2C)c1 [Compound No. 1-23, N-methyl-3-(4′-chloro-2′,6′-dimethylphenyl)benzamide] — higher, 137.1 °C
- Cc1cc(Oc2ccc(C(F)(F)F)cn2)cc(C)c1-c1cccc(N)c1 [Compound No. 1-57, 4-(3′-aminophenyl)3,5-dimethylphenyl 5-trifluoromethyl-2-pyridyl ether] — higher, 200.3 °C
- CCNC(=O)c1cccc(-c2c(Cl)ccc(C(F)(F)F)c2Cl)c1 [1-127, N-ethyl-3-(2′,6′-dichloro-3′-trifluoromethylphenyl)benzamide] — higher, 137 °C
